Laboratory results from US6573276B2, “Muscarinic M1 agonist as an inhibitor of beta-amyloid (Aβ40 and Aβ42)-synthesis” (Boehringer Ingelheim Pharma KG, priority 2001, dated 2003).

Experiments:
[1] = tested on: Aβ formation; conditions: cell culture and brain slice models; background statement; cited from earlier work
[2] = tested on: Aβ42; assay: CSF levels of Aβ42 (sandwich ELISA) before and after 4 weeks of treatment, clinical phase II trial; type: in vivo, human
Description: (§1) To test whether this effect also occurs in humans, talsaclidine or placebo were administered to 40 patients with clinical diagnosis of probable senile dementia of Alzheimer-type and measured cerebrospinal fluid (CSF) levels of Aβ40 and Aβ42 before and at the end of 4 weeks of treatment. To control for specificity, CSF levels of both total tau and phosphorylated tau were also measured.
(§2) Diagnosis of probable Alzheimer's disease was made according to the National Institute of Neurological and Communicative Disorders and Stroke-Alzheimer's Disease and Related Disorders Association (NINCDS-ADRDA) as well as ICD10 criteria. All patients were community-dwelling and were referred to the participating dementia clinics from general practitioners, neurologists, and psychiatrists. All patients gave their informed consent and were screened for participation in a clinical phase II trial in accordance with GCP and ICH guidelines. The clinical phase II trial was designed to test the safety and tolerability of talsaclidine. CSF measurements were performed within a scientific add-on protocol and additional separate informed consent to the multicenter clinical trial.
Patients were carefully examined and received a thorough clinical work-up. Psychometric testing included the Mini Mental State Examination (MMSE) as a global screening instrument for dementia, the Alzheimer's Disease Assessment Scale, cognitive part (ADAScog), the Clinical Global Impression (CGI) and the Behavioral Pathology in AD (BEHAVE-AD). There were 40 participants in the study with two CSF samples each. Among the inclusion criteria were age below 85 years, MMSE between 12 and 28, and the absence of relevant systemic disorders.
Talsaclidine was given, in a randomized, double-blind design, three times per day (t.i.d) in a constant dosage with increasing dose panels. Both capsules or tablets of different dose strength were applied. The specific formulations used are outlined in detail below.
The aforementioned pharmaceutical compositions were administered twice daily or three times per day to the patients. The following dosings were applied: 4.5 mg talsaclidine (n=5 patients); 9 mg (n=4); 18 mg (n=4); 36 mg (n=4); 72 mg (n=4); 96 mg (n=4); 108 mg (n=4); 120 mg (n=2); 144 mg (n=3); and placebo (n=6).
Within one week of dementia testing and before treatment, CFS was obtained by lumbar puncture according to conventional techniques. CFS samples were frozen on dry ice immediately upon withdrawal at the bedside in 0.5 ml aliquots and stored at −85° C. until biochemical analyses. A second lumbar puncture was done after four weeks of treatment and the CFS obtained was processed identically to the initial lumbar puncture. All available CFS samples were included in the analyses.
Sandwich ELISA was performed by using precoated plates (INNOTEST β-Amyloid 1-42, 8-well strips; Innogenetics, Belgium) with the capture antibody 21F12 (Innogenetics, Belgium). The capture 21F12 is specific for the free carboxyl terminus of Aβ42 (peptide sequence Aβ33-42). After washing (5×, room temperature), biotinylated antibody 6E10 at […] concentration in blocking buffer (50 mM Tris-HCl pH 7.5; 140 mM NaCl; 5 mM EDTA; 0.05% NP40; 0.25% gelatine; 1% BSA) was added. Each assay plate included a standard curve with highly purified Aβ42. After color development with TMP and Vectastain ABC detection (streptavidin-peroxidase complex, Vectastain Elite ABC Kit), absorbance was read at 450 nm. The linear range of the assay was 30 pg/ml to 5 ng/ml. There was no cross reactivity in either assay with Aβ42 or Aβ40.
Statistical analyses of data were done by Wilcoxon signed-rank tests for paired samples as well as by the Mann-Whitney U test for group comparisons. Bonferroni correction for multiple testing was performed. Analyses of covariates were used to test whether changes correlated with age, gender, or dementia severity.

[3] = tested on: Aβ40; assay: CSF levels of Aβ40 (sandwich ELISA) before and after 4 weeks of treatment, clinical phase II trial; type: in vivo, human
Description: as §1
as §2, with “CSF measurements were performed within a scientific add-on protocol and additional separate informed consent to the multicenter clinical trial.” left out
Sandwich ELISA was performed with the capture antibody 6E10 (Senetek, Maryland Heights, Mo.). […] After color development with 3,5,3′,5′-tetramethylbenzidine (TMB) and hydrogen peroxide, absorbance was read at 450 nm on a microplate reader (Victor2 Multilabel, EG&G® Wallac). […]

[4] = tested on: tau protein; assay: CSF levels of tau (sandwich ELISA) before and after 4 weeks of treatment, clinical phase II trial; type: in vivo, human; conditions: patients
Description: as §1, §2
Patients were carefully examined and received a thorough clinical work-up. […]
The monoclonal antibody AT120 that reacts with both normal and HPF-tau was used in a sensitive sandwich ELISA (Innogenetics, Belgium). […] Absorbance was read at 450 nm. […]

[5] = dosings 4.5 to 144 mg talsaclidine, four weeks
[6] = patients treated with talsaclidine, four weeks

SMILES: C#CCOC1CN2CCC1CC2 (stereo not drawn) [talsaclidine]
- Aβ formation [1]: lowers Aβ formation
- dose dependence of the decrease of CSF levels of Aβ42 [2, 5]: not dose dependently
- patients in whom CSF levels of Aβ42 decreased [2, 6]: 65%
- patients in whom CSF levels of Aβ42 did not change [2, 6]: 15%
- patients in whom CSF levels of Aβ42 increased [2, 6]: 20%
- mean CSF levels of Aβ42 (mean±SD) ([2]; patients with probable Alzheimer's disease, talsaclidine group n=34, starting value ('decreased from'), value after four weeks not given): 0.126 ± 0.073 ng/mL
- decrease of CSF levels of Aβ42 over time within the treatment group, median ([2]; patients, four weeks of treatment, n=34, significant): 17%
- decrease of CSF levels of Aβ42 compared to placebo, median ([2]; patients, four weeks of treatment, talsaclidine n=34 vs placebo n=6, significant): 23%
- dose dependence of change of CSF levels of Aβ40 [3, 5]: decreased dose dependently
- CSF levels of Aβ40 in total in comparison to placebo ([3]; patients, four weeks of treatment): did not increase in total in comparison to placebo
- dose dependence of change of CSF tau ([4]; n=34, dosings 4.5 to 144 mg talsaclidine, four weeks): decreased dose dependently
- CSF tau in total in comparison to placebo ([4]; n=34, four weeks of treatment): did not decrease in total in comparison to placebo
